In publication PMC12022113 (Nature Communications, 2025):
“Also recorded” adds a separate entry of the source.

Columns and labels:
V2R [1] = details: cited from earlier work
V1aR = details: cited from earlier work
OTR = details: cited from earlier work
V2R D103A mutant = V2R D103A mutant (Homo sapiens, UniProt P30518, D103A); type: binding
V2R R104A mutant = V2R R104A mutant (Homo sapiens, UniProt P30518, R104A); type: binding
V2R K116A mutant = V2R K116A mutant (Homo sapiens, UniProt P30518, K116A); type: binding
V2R Q119A mutant = V2R Q119A mutant (Homo sapiens, UniProt P30518, Q119A); type: binding
V2R Q174A mutant = V2R Q174A mutant (Homo sapiens, UniProt P30518, Q174A); type: binding
V2R E184A mutant = V2R E184A mutant (Homo sapiens, UniProt P30518, E184A); type: binding
V2R I209A mutant = V2R I209A mutant (Homo sapiens, UniProt P30518, I209A); type: binding
V2R F287A mutant = V2R F287A mutant (Homo sapiens, UniProt P30518, F287A); type: binding
V2R Q291A mutant = V2R Q291A mutant (Homo sapiens, UniProt P30518, Q291A); type: binding
V2R S315A mutant = V2R S315A mutant (Homo sapiens, UniProt P30518, S315A); type: binding
V2R [2] = details: cited from earlier work; remark: listed apart in the source
[3] = in vivo; cited from earlier work

Cc1nc2c([nH]1)-c1ccccc1N(C(=O)c1ccc(NC(=O)c3ccccc3-c3ccccc3)cc1)CC2 [Conivaptan]
selectivity to V2R (V2R [1]): not selective to V2R
affinity for V1aR (V1aR): high affinity

CC[C@H](C)[C@@H]1C(=O)N[C@H](C2Cc3ccccc3C2)C(=O)N1[C@@H](C(=O)N1CCOCC1)c1coc(C)n1 [Retosiban]
OTR antagonism (OTR): potent OTR-selective non-peptide antagonist

Cc1ccccc1C(=O)Nc1ccc(C(=O)N2CCCC(O)c3cc(Cl)ccc32)c(C)c1 (centres unmarked) [TVP, 7-Chloro-5-hydroxy-1-[2-methyl-4-(2-methylbenzoylamino)benzoyl]-2,3,4,5-tetrahydro-1 H -1-benzazepine]
effect of mutation (loss or gain vs WT) (V2R D103A mutant): less than 5 fold
effect of mutation (loss or gain vs WT) (V2R R104A mutant): less than 5 fold
effect of mutation on affinity (V2R R104A mutant): very limited effect or were without effect
effect of mutation on affinity (V2R K116A mutant): moderate change in binding affinity; also recorded: less pronounced regarding TVP affinity, but was significant
effect of mutation on affinity (V2R Q119A mutant): significant gain in affinity
effect of mutation on affinity (V2R Q174A mutant): significant decrease in TVP affinity
effect of mutation (loss or gain vs WT) (V2R E184A mutant): less than 5 fold
effect of mutation on affinity (V2R E184A mutant): very limited effect or were without effect
effect of mutation (loss or gain vs WT) (V2R I209A mutant): less than 5 fold
effect of mutation on affinity (V2R I209A mutant): very limited effect or were without effect
effect of mutation on affinity (V2R F287A mutant): moderate change in binding affinity
effect of mutation (loss or gain vs WT) (V2R Q291A mutant): less than 5 fold
effect of mutation on affinity (V2R Q291A mutant): moderate change in binding affinity
effect of mutation (loss or gain vs WT) (V2R S315A mutant): less than 5 fold
effect of mutation on affinity (V2R S315A mutant): very limited effect or were without effect
affinity for V2R (V2R [1]): high affinity
efficacy toward the Gs/cAMP pathway (V2R [2]): inverse agonist
inhibition of V2R-dependent signaling pathways (V2R [2]): inhibit V2R-dependent signaling pathways
liver injury [3]: serious and potentially fatal liver injury
urine volume [3]: increasing the amount of urine volume
